Test [1] has as its target PASK (UniProt # Q96RG2; human recombinant N-terminal GST tagged construct, residues 879-1323) (Homo sapiens (Human), UniProt Q96RG2). The test is described as follows: PASK ATP Radiochemical Assay. In kind it is biochemical. The following applies: 33P-ATP radiochemical, Myelin Basic Protein substrate; read-out: IC50 Kinase Domain. As to the method:
PASK ATP Radiochemical Assay
Test compounds in DMSO are then added and the mixture, followed by delivery of ^33P-ATP (specific activity 0.01 μCi/μl final) to initiate the reaction. […] The entire reaction mixture is washed through onto a P81 Phosphocellulose paper and washed three times for 10 minutes in 75 mM phosphoric acid and once in methanol prior to drying and scintillation counting.

The target of test [2] is PASK (Homo sapiens (Human), UniProt Q96RG2). The test is described as follows: PAS Kinase Luminescence Assay (Kinase-Glo). The format is biochemical. The following applies: purified hPASK from insect cells, read-out: IC50 Kinase Domain. How it is done:
Biochemical Assay for hPASK Activity
PAS Kinase Luminescence Assay
One assay for purified hPASK activity utilizes the Kinase-Glo Luminescent Kinase Assay (Promega), which quantifies the amount of ATP remaining in solution following kinase reaction. The assay is carried out in a 96-well plate format and is performed by adding a volume of Kinase-Glo Reagent (Promega, catalog # V3771) equal to the volume of solution in the well of a completed kinase reaction. Kinase-Glo reagent contains Luciferase and its substrate. After addition to a kinase reaction it allows to measure luminescence. The amount of ATP left in solution at the time of Kinase-Glo Plus addition is directly proportional to the luminescence that is measured in each well, and inversely correlated with kinase activity.
Purified hPASK from insect cells (0.02 μg) is added to a 50 μL reaction mix containing 40 mM HEPES (pH 7.0), 100 mM KCl, 5 mM MgCl2, 1 mM DTT and […] of MBP protein. Inhibitory compounds are then added and the mixture is incubated for 10 min at 25° C. before adding 5 μL of ATP (at desired concentration). The reaction is allowed to proceed at 25° C. for 1 hour before adding 50 μL of Kinase-Glo reagent. The luminescence is measured as soon as 10 minutes after Kinase-Glo reagent is added.

In test [3] the test system is C57Bl6 mice fed a high fat diet. The test is described as follows: Mouse High Fat Dietary Model with fast/re-feed. The format is in vivo. The following applies: for reduction in body weight vs vehicle: fast/re-feed mice. As to the method: Mouse High Fat Dietary Model
A standard model of human hyperlipidemia and insulin resistance is the mouse fed a high fat diet for several weeks (31, 33). Additionally, since hepatic lipid synthesis is known to be regulated by food consumption, the fast/re-feed cycle of Horton et al. (32) was incorporated into the chronic high fat diet model. The compound was evaluated in this model as an agent to restore insulin sensitivity and lower blood lipids. The chronic high fat diet was fed to mice to simulate a standard Western diet which is elevated in calories from high fat and carbohydrate intake. This and similar models of dietary induced obesity, insulin insensitivity and elevated serum lipids and cholesterol are used as mouse and rat models of human pathology including hyperlipidemia, type II diabetes, atherosclerosis, obesity, cardiovascular and liver disease. These models have been used as excellent predictors of efficacy in human clinical trials (PPAR and FXR agonists).
The farnesoid X receptor (FXR) is a ligand-activated transcription factor and a member of the nuclear receptor superfamily. […] While the mechanism of action of FXR agonists is clearly distinct from PASK inhibition, WAY-362450 has been used as a positive control compound producing physiologically beneficial changes in glucose and lipid metabolism resembling inhibition of PASK. Throughout these in vivo assays, WAY-362450 has been used as a control compound, and will be referred to as such.
Male C57Bl6 mice were obtained from Jackson Laboratories and had been fed a high fat diet (60% kcal fat) for eight weeks. The mice were fed an identical high fat diet (Research Diet D12492) upon arrival and during the study. All mice were treated with the subject compound at 30 or 100 mg/kg, control compound (WAY-362450) at 30 mg/kg or vehicle by oral gavage daily for three days. On the final day, 10 animals from each group began an 24 hour fast and then were sacrificed (fasted groups 1a,2a,3a,4a). Alternatively, 10 animals from each group underwent a 24 hour fast followed by a 12 hour re-feed period with the same high fat diet ad libitum and then were sacrificed (re-fed groups 1b,2b,3b,4b).
Body weights were monitored at the start and end of the protocol. After completing the fast or fast/re-feed conditions, the mice were given avertin for anesthesia by intraperitoneal administration. Whole blood was collected by cardiac puncture and the mice were terminated by cervical dislocation. Livers were collected surgically, weighed and immediately frozen in liquid nitrogen. The blood was placed in Li-heparin treated tubes, centrifuged to collect plasma and the plasma frozen.
The plasma was analyzed by standard colorimetric assays for glucose, insulin, triglycerides and cholesterol. Frozen liver samples were pulverized and extracted in ethanolic KOH and analyzed for liver triglycerides and cholesterol.

Test [4] deals with Sprague Dawley rats on a high fructose diet. Put plainly: Rat High Fructose Model with Fast/Re-Feed. In kind it is in vivo. The conditions noted are these: for body weight change relative to the Vehicle group: FIG. 1; for decrease in plasma glucose compared to vehicle / reduction in plasma insulin levels: after fast and re-feed. How it is done:
Rat High Fructose Model with Fast/Re-Feed
Another standard model of human hyperlipidemia and insulin resistance is the rat fed a high fructose diet for several weeks (33). Additionally, since hepatic lipid synthesis is known to be regulated by food consumption, the fast/reefed cycle of Horton et al. (32) was incorporated into the chronic high fructose diet model. A compound disclosed above was evaluated in this model as an agent to restore insulin sensitivity and lower blood lipids.
Eight week old male Sprague Dawley rats were purchased from Harlan, Inc. The rats weighed 200-225 g upon arrival and were divided into groups as detailed in Table 2 and were immediately placed on a high fructose diet (60% kcal fructose; Open Source Diet # D00111301) ad libitum for three weeks. During the last week of feeding the high fructose diet, the rats were dosed with vehicle (5% solutol, 8% β cyclo-dextrin), subject compound at 30 mg/kg or 100 mg/kg or the control compound at 30 mg/kg by oral gavage once daily for 7 days. On the final day, all animals were placed on a […] followed by a 12 hour re-feed period on the high fructose diet ad libitum.
Body weights were monitored throughout the protocol. After completing the fast or fast/re-feed conditions, the rats were given avertin for anesthesia by intraperitoneal administration. Whole blood was collected by cardiac puncture and the rats were terminated by cervical dislocation. Livers were collected surgically, weighed and immediately frozen in liquid nitrogen. The blood was placed in Li-heparin treated tubes, centrifuged to collect plasma and the plasma frozen.
The plasma was analyzed by standard colorimetric assays for glucose, insulin, triglycerides and cholesterol.

For orientation: IC50 means the concentration needed to halve the response being measured.

PASK (Homo sapiens (Human), UniProt Q96RG2), sequence (Q96RG2 999-1251): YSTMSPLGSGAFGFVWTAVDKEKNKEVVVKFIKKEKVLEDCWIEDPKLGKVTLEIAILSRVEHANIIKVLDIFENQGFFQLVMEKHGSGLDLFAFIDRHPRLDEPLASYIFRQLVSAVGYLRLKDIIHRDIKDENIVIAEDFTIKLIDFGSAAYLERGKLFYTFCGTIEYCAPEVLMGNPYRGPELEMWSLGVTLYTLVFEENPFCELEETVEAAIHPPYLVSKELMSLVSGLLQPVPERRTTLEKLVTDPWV
PASK (UniProt # Q96RG2; human recombinant N-terminal GST tagged construct, residues 879-1323) (Homo sapiens (Human), UniProt Q96RG2), sequence (Q96RG2 879-1323, change not shown): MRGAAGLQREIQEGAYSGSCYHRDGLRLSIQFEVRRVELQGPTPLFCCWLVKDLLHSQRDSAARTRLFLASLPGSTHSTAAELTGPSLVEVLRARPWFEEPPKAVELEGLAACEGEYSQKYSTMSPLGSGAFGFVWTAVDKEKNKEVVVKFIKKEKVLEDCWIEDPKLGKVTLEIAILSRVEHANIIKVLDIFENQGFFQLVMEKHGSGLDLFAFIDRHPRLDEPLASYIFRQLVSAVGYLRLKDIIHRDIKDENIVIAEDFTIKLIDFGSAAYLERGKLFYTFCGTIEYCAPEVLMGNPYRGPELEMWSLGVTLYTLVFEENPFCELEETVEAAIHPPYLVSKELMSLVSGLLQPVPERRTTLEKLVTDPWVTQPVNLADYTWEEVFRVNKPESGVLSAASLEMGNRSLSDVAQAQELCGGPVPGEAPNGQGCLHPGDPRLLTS

For `COc1ccc(-c2nc3ccc(-c4nnn[nH]4)cc3nc2-c2ccc(OC)cc2)cc1` [Example 31, 2,3-Bis(4-methoxyphenyl)-6-(1H-tetrazol-5-yl)quinoxaline], the IC50 on PASK [1] and on PASK [2] was less than 10 µM in each case.

Take `O=C(O)c1ccc2nc(-c3ccccc3)c(N3CCN(c4ncccn4)CC3)nc2c1` [Example 19, 2-Phenyl-3-(4-(pyrimidin-2-yl)piperazin-1-yl)quinoxaline-6-carboxylic acid]: the IC50 on PASK [1] and on PASK [2] was less than 10 µM in each case.

Turning to `O=C(O)c1ccc2nc(N3CCC(c4ccc(C(F)(F)F)cc4)CC3)c(-c3ccc(F)cc3)nc2c1` [Example 29, 3-(4-Fluorophenyl)-2-(4-(4-(trifluoromethyl)phenyl)piperidin-1-yl)quinoxaline-6-carboxylic acid], the IC50 was more than 10 µM on PASK [1] and less than 10 µM on PASK [2].

Consider `O=C(O)c1ccc2nc(N3CCCCC3)c(-c3ccccc3)nc2c1` [Example 23, 3-Phenyl-2-(piperidin-1-yl)quinoxaline-6-carboxylic acid], for which the IC50 at PASK [2] is less than 10 µM.

`O=C(O)c1ccc2nc(N3CCC(c4cccc(Cl)c4)CC3)c(-c3ccc(F)cc3)nc2c1` [Example 25, 2-(4-(3-Chlorophenyl)piperidin-1-yl)-3-(4-fluorophenyl)quinoxaline-6-carboxylic acid]: the IC50 on PASK [2] was less than 10 µM.

Turning to `COc1ccc(C2CCN(c3nc4ccc(C(=O)O)cc4nc3-c3ccc(F)cc3)CC2)cc1` [Example 26, 3-(4-Fluorophenyl)-2-(4-(4-methoxyphenyl)piperidin-1-yl)quinoxaline-6-carboxylic acid], the IC50 at PASK [1] and at PASK [2] was less than 10 µM throughout.

As for `COc1ccc(C2CCN(c3nc4cc(C(=O)O)ccc4nc3-c3ccccc3)CC2)cc1` [Example 11, 3-(4-(4-Methoxyphenyl)piperidin-1-yl)-2-phenylquinoxaline-6-carboxylic acid], the IC50 at PASK [2] was less than 10 µM.

Consider `CC(C)N(C)c1nc2cc(C(=O)O)ccc2nc1-c1ccc(F)cc1` [subject compound], for which the “reduction in liver weight” value in test [3] (30 and 100 mg/kg, trend of dose dependent reductions) was 7-9%. The “decrease in plasma glucose vs vehicle” value in test [3] (fast and re-feed mice, highest dose 100 mg/kg) is “up to 21%”; in test [3] (fasted only mice, 30 mg/kg) it was 30%; in test [3] (fasted only mice, 100 mg/kg) it was 43%. The “reduction in body weight vs vehicle” value in test [3] (30 mg/kg oral gavage daily for three days) was 2.7%; in test [3] (100 mg/kg oral gavage daily for three days), 5.1%. In addition, the “decrease in plasma insulin vs vehicle” value is 10% in test [3] (fasted and re-fed mice, 30 mg/kg); 28% in test [3] (fasted and re-fed mice, 100 mg/kg); “up to 26%” in test [3] (fasted only mice, 30 and 100 mg/kg). In addition, the “decrease in body weight vs vehicle” value in test [3] (fasted only mice, 30 mg/kg oral gavage daily for three days) was 1.8%; in test [3] (fasted only mice, 100 mg/kg oral gavage daily for three days) it was 5.1%. Further, the “body weight change relative to the Vehicle group” value in test [4] (30 mg/kg oral gavage once daily for 7 days) is listed as “modest increase in body weight”; in test [4] (100 mg/kg oral gavage once daily for 7 days), “modest decrease in body weight”. In addition, the “decrease in plasma cholesterol vs vehicle” value in test [4] (30 mg/kg, 7 days) came out at 5.7%; in test [4] (100 mg/kg, 7 days) it was 10%. Besides, the “reduction in plasma triglycerides vs vehicle” value in test [4] (30 mg/kg, 7 days) is 25.1%; in test [4] (100 mg/kg, 7 days), 54.3%. Besides, the “decrease in plasma glucose compared to vehicle” value in test [4] (30 mg/kg, 7 days) is 21.5%; in test [4] (100 mg/kg, 7 days), 26.3%. The “reduction in plasma insulin levels” value in test [4] (30 mg/kg, 7 days) worked out at 15.4%; in test [4] (100 mg/kg, 7 days), 31.4%. In addition, the “maximal reduction in liver weight” value in test [4] (100 mg/kg, 7 days) is “about 4%”.

For the molecule `O=C(O)c1ccc2nc(N3CCC(c4ccccc4)CC3)c(N3CCC(c4ccccc4)CC3)nc2c1` [Example 30, 2,3-Bis(4-phenylpiperidin-1-yl)quinoxaline-6-carboxylic acid], the IC50 on PASK [1] and at PASK [2] was less than 10 µM throughout.

As to `O=C(O)c1ccc2nc(-c3ccccc3)c(N3CCOCC3)nc2c1` [Example 16, 3-Morpholino-2-phenylquinoxaline-6-carboxylic acid], the IC50 on PASK [1] and at PASK [2] was less than 10 µM each time.

With `O=C(O)c1ccc2nc(-c3ccccc3)c(N3CCN(c4ccc(C(F)(F)F)cn4)CC3)nc2c1` [Example 20, 2-Phenyl-3-(4-(5-(trifluoromethyl)pyridin-2-yl)piperazin-1-yl)quinoxaline-6-carboxylic acid], the concentration for half-maximal inhibition (IC50) on PASK [1] and on PASK [2] was less than 10 µM throughout.

Take `CN1CCCN(c2nc3cc(C(=O)O)ccc3nc2-c2ccccc2)CC1` [Example 17, 3-(4-Methyl-1,4-diazepan-1-yl)-2-phenylquinoxaline-6-carboxylic acid]: the IC50 at PASK [1] and at PASK [2] was less than 10 µM in each case.

As to `O=C(O)c1ccc2nc(N3CCCCCC3)c(-c3ccccc3)nc2c1` [Example 22, 2-(Azepan-1-yl)-3-phenylquinoxaline-6-carboxylic acid], the IC50 at PASK [2] is more than 10 µM.

Consider `O=C(O)c1ccc2nc(N3CCN(c4ccccn4)CC3)c(-c3ccc(F)cc3)nc2c1` [Example 27, 3-(4-Fluorophenyl)-2-(4-(pyridin-2-yl)piperazin-1-yl)quinoxaline-6-carboxylic acid], for which the IC50 at PASK [2] is less than 10 µM.

As for `O=C(O)c1ccc2nc(-c3ccccc3)c(N3CCN(c4ccc5ccccc5n4)CC3)nc2c1` [Example 21, 2-phenyl-3-(4-(quinolin-2-yl)piperazin-1-yl)quinoxaline-6-carboxylic acid], the IC50 at PASK [1] and on PASK [2] was less than 10 µM throughout.

Turning to `O=C(O)c1ccc2nc(N3CCC(c4ccc(Cl)cc4)CC3)c(-c3ccc(F)cc3)nc2c1` [Example 24, 2-(4-(4-Chlorophenyl)piperidin-1-yl)-3-(4-fluorophenyl)quinoxaline-6-carboxylic acid], the IC50 on PASK [1] and at PASK [2] was less than 10 µM throughout.

Values taken from patent US10781185B2, “Heterocyclic compounds for the inhibition of PASK” (BioEnergenix LLC, priority 2009, dated 2020).
